From paper PMC12298648, “An Evaluation of the Cytotoxicity and Safety Profile of Usnic Acid for a Broad Panel of Human Cancers and Normal Cells with Respect to Its Enantiospecificity” (Molecules, 2025)
Values after ≈ are worked out from the molar mass of the structure shown. Where two headings read alike, the source gives them in different places.

What was measured:
[1] = test system: HT29; experiment: MTT viability assay, HT29 colon cancer cells; assay type: cell-based, human; conditions: for Cell viability: HT29, 24 h; for IC50: Homo sapiens, HT-29
Excerpt: (§1) Cell lines of different origins were used in the study and grouped as follows: prostate panel (human prostate carcinomas: DU145, derived from metastatic site: brain; grade IV PC3, derived from metastatic site: bone; LNCaP, derived from the metastatic site: lymph node; prostate epithelial, PNT2), colon panel (colorectal adenocarcinomas: HT29, originating from a primary tumor; Duke’s type C DLD-1, with the potential to lymph node metastasis; highly metastatic HCT116; colon epithelial cells CCD 841 CoN), thyroid panel (follicular thyroid carcinoma FTC133, anaplastic thyroid carcinoma 8505C, papillary thyroid carcinoma TPC-1, normal thyroid follicular epithelial Nthy-ori 3–1), breast panel (ER-positive breast adenocarcinoma MCF7, ER-negative breast adenocarcinoma MDA-MB-231, breast epithelial MCF10A), brain panel (neuroblastoma SH-SY5Y, glioblastoma U-87 MG, murine astrocytes C8D1A). All cell lines were purchased from Merck (Darmstadt, Germany).
(§2) Cells were grown under standard conditions (37 °C, 5% CO2) and culture media (DMEM/F12 for PNT2, PC3, FTC133, 8505 C, MDA-MB-231, TPC-1; DMEM Low Glucose for DU145; DMEM High Glucose for HCT116, DLD-1, SH-SY5Y, U87MG, C8D1A; MEM with NEAA for MCF7; MEM for CCD 841 CoN; McCoy’s for HT29; RPMI1640 with sodium pyruvate for LNCaP; DMEM/F12 with 20 ng/mL epidermal growth factor (EGF), 10 μg/mL insulin, 0.5 μg/mL hydrocortisone, 100 ng/mL cholera toxin) for MCF10A), supplemented with 10% fetal bovine serum (FBS) or 5% donor horse serum for MCF10A, and 1% antibiotics solution (10,000 U penicillin and 10 mg streptomycin/mL). The tested substances were prepared as 10 mg/mL stock solutions in DMSO and further diluted in the culture media to the working concentrations. Cells were treated with UA enantiomers at the concentration range of 0–50 µg/mL. The influence of DMSO on cell viability was also examined, with the final concentration […], and no toxic effect was noted.
(§3) The cells were seeded onto 96-well plates at a density of 1.5 × 10^4 cells/well. After 24 h UA enantiomers were added. Cell viability was determined after 24, 48, and 72 h by the MTT assay, as described previously. Doxorubicin was used as a reference cytostatic drug. All analyses were performed in triplicate; cell viability was expressed as % of control, untreated cells (mean ± SD), and IC50 values (concentration at which cell viability is inhibited by 50%), if possible.

[2] = test system: CCD 841 CoN; experiment: MTT viability assay, normal colon epithelial cells; assay type: cell-based, human; conditions: for Cell viability: CCD 841 CoN, 24 h; for IC50: Homo sapiens, CCD-841CoN
Excerpt: as §1, §2, §3

[3] = test system: LNCaP; experiment: MTT viability assay, LNCaP prostate cancer cells; assay type: cell-based, human; conditions: for Cell viability: 24 h; for IC50: Homo sapiens
Excerpt: as §1, §2, §3

[4] = test system: PNT2; experiment: MTT viability assay, normal prostate epithelial cells; assay type: cell-based, human; conditions: for IC50: Homo sapiens; for Cell viability: PNT2, 24 h
Excerpt: as §1, §2, §3

[5] = test system: 8505C; experiment: MTT viability assay, 8505C anaplastic thyroid carcinoma cells; assay type: cell-based, human; conditions: for Cell viability: 24 h; for IC50: Homo sapiens
Excerpt: as §1, §2, §3

[6] = test system: MCF7; experiment: MTT viability assay, MCF7 breast cancer cells; assay type: cell-based, human; conditions: for IC50: Homo sapiens; for Cell viability: MCF7, 24 h
Excerpt: as §1, §2, §3
The selectivity index (SI) was calculated, if possible, by dividing the IC50 value obtained for non-cancerous cells line by the IC50 values obtained for appropriate cancer cell line, as described previously. […] The values above 3 indicate good selectivity.

[7] = test system: HT29 cells; conditions: HT29, 48 h, cited from earlier work
[8] = test system: DU145 cells; conditions: DU145, 72 h, cited from earlier work
[9] = test system: MCF7 cells; set-up: method as in not printed ('another' study); conditions: MCF7, 72 h, ref not given ('another' study), cited from earlier work
[10] = test system: glioblastoma U251 cells; set-up: method as in PMID 18558490; conditions: U251, 72 h, cited from earlier work
[11] = test system: WM793 cells; set-up: method as in PMID 34577645; conditions: WM793, 48 h; cited from earlier work
[12] = test system: HepG2 cells; set-up: method as in PMID 40368021; conditions: cited from earlier work
[13] = recalculated from µM by the authors

For `CC(=O)C1=C(O)C=C2Oc3c(C(C)=O)c(O)c(C)c(O)c3[C@]2(C)C1=O` [UA(−), (−)-usnic acid], which Cell viability ([1]; 2.5 µg/mL) is on record?
Its Cell viability is 102.45 % of control.

What about the Cell viability ([1]; 5 µg/mL) of the same molecule?
The Cell viability was 90.48 % of control.

And the Cell viability ([1]; 10 µg/mL)?
The Cell viability was 84.03 % of control.

And the Cell viability ([1]; 20 µg/mL)?
Its Cell viability is 79.62 % of control.

What about the Cell viability ([1]; 30 µg/mL) of the same molecule?
The Cell viability was 74.37 % of control.

And the Cell viability ([1]; 40 µg/mL)?
The Cell viability was 72.48 % of control.

And the Cell viability ([1]; 50 µg/mL)?
The Cell viability was 73.95 % of control.

And the IC50 ([1]; HT29, 48 h)?
The IC50 was > 50 µg/mL.

What about the IC50 ([1]; HT29, 72 h) of the same molecule?
Its IC50 is 32.7 µg/mL (≈ 95 µM).

And the Cell viability ([2]; 2.5 µg/mL)?
Its Cell viability is 98.61 % of control.

What about the Cell viability ([2]; 5 µg/mL) of the same molecule?
Its Cell viability is 98.89 % of control.

What about the Cell viability ([2]; 10 µg/mL) of the same molecule?
The Cell viability was 96.39 % of control.

And the Cell viability ([2]; 20 µg/mL)?
Its Cell viability is 99.72 % of control.

What about the Cell viability ([2]; 30 µg/mL) of the same molecule?
The Cell viability was 96.11 % of control.

What about the Cell viability ([2]; 40 µg/mL) of the same molecule?
Its Cell viability is 96.94 % of control.

What about the Cell viability ([2]; 50 µg/mL) of the same molecule?
The Cell viability was 93.06 % of control.

What about the IC50 ([2]; 48 h) of the same molecule?
Its IC50 is > 50 µg/mL.

And the IC50 ([2]; 72 h)?
Its IC50 is > 50 µg/mL.

What about the Cell viability ([3]; 2.5 µg/mL) of the same molecule?
Its Cell viability is 100.45 % of control.

And the Cell viability ([3]; 5 µg/mL)?
Its Cell viability is 98.18 % of control.

And the Cell viability ([3]; 10 µg/mL)?
Its Cell viability is 88.48 % of control.

And the Cell viability ([3]; 20 µg/mL)?
Its Cell viability is 85.30 % of control.

What about the Cell viability ([3]; 30 µg/mL) of the same molecule?
Its Cell viability is 81.97 % of control.

What about the Cell viability ([3]; 40 µg/mL) of the same molecule?
Its Cell viability is 79.09 % of control.

And the Cell viability ([3]; 50 µg/mL)?
The Cell viability was 89.39 % of control.

And the IC50 ([3]; 48 h)?
The IC50 was > 50 µg/mL.

What about the IC50 ([3]; 72 h) of the same molecule?
The IC50 was > 50 µg/mL.

And the IC50 ([4]; PNT2, 48 h)?
Its IC50 is 35.4 µg/mL (≈ 103 µM).

What about the IC50 ([4]; PNT2, 72 h) of the same molecule?
The IC50 was 27.8 µg/mL (≈ 80.7 µM).

And the Cell viability ([4]; 2.5 µg/mL)?
The Cell viability was 103.40 % of control.

What about the Cell viability ([4]; 5 µg/mL) of the same molecule?
The Cell viability was 99.24 % of control.

What about the Cell viability ([4]; 10 µg/mL) of the same molecule?
The Cell viability was 91.32 % of control.

What about the Cell viability ([4]; 20 µg/mL) of the same molecule?
Its Cell viability is 83.13 % of control.

What about the Cell viability ([4]; 30 µg/mL) of the same molecule?
The Cell viability was 74.58 % of control.

What about the Cell viability ([4]; 40 µg/mL) of the same molecule?
The Cell viability was 68.75 % of control.

What about the Cell viability ([4]; 50 µg/mL) of the same molecule?
Its Cell viability is 54.38 % of control.

And the Cell viability ([5]; 2.5 µg/mL)?
Its Cell viability is 105.18 % of control.

What about the Cell viability ([5]; 5 µg/mL) of the same molecule?
Its Cell viability is 107.97 % of control.

And the Cell viability ([5]; 10 µg/mL)?
The Cell viability was 100.80 % of control.

What about the Cell viability ([5]; 20 µg/mL) of the same molecule?
The Cell viability was 100.00 % of control.

And the Cell viability ([5]; 30 µg/mL)?
The Cell viability was 102.79 % of control.

And the Cell viability ([5]; 40 µg/mL)?
The Cell viability was 103.98 % of control.

And the Cell viability ([5]; 50 µg/mL)?
The Cell viability was 94.42 % of control.

And the IC50 ([5]; 48 h)?
The IC50 was > 50 µg/mL.

What about the IC50 ([5]; 72 h) of the same molecule?
The IC50 was > 50 µg/mL.

What about the IC50 ([6]; MCF7, 48 h) of the same molecule?
Its IC50 is > 50 µg/mL.

And the IC50 ([6]; MCF7, 72 h)?
Its IC50 is 33.4 µg/mL (≈ 97 µM).

What about the Cell viability ([6]; 2.5 µg/mL) of the same molecule?
The Cell viability was 124.74 % of control.

And the Cell viability ([6]; 5 µg/mL)?
The Cell viability was 113.59 % of control.

And the Cell viability ([6]; 10 µg/mL)?
Its Cell viability is 110.03 % of control.

What about the Cell viability ([6]; 20 µg/mL) of the same molecule?
Its Cell viability is 106.15 % of control.

What about the Cell viability ([6]; 30 µg/mL) of the same molecule?
Its Cell viability is 109.10 % of control.

What about the Cell viability ([6]; 40 µg/mL) of the same molecule?
The Cell viability was 106.28 % of control.

And the Cell viability ([6]; 50 µg/mL)?
The Cell viability was 91.15 % of control.

And the IC50 [7, 13]?
Its IC50 is 18.9 µg/mL.

What about the IC50 ([7]; read-out: IC50) of the same molecule?
The IC50 was 55 µM.

And the IC50 [8, 13]?
The IC50 was 15.8 µg/mL.

What about the IC50 ([8]; read-out: IC50) of the same molecule?
Its IC50 is 45.9 µM.

And the IC50 [9, 13]?
Its IC50 is 17.8 µg/mL.

And the IC50 ([9]; read-out: IC50)?
The IC50 was 51.7 µM.

What about the IC50 [10, 13] of the same molecule?
Its IC50 is 6.8 µg/mL.

And the IC50 ([10]; read-out: IC50)?
The IC50 was 19.7 µM.

What about the IC50 [11] of the same molecule?
The IC50 was 52.09 µg/mL (≈ 151 µM).

What about the “IC50 (hepatotoxicity)” value ([12]; HepG2, 48 h) of the same molecule?
Its value is 16.0 µg/mL (≈ 46.5 µM).

What about the “IC50 (hepatotoxicity)” value ([12]; HepG2, 72 h) of the same molecule?
Its value is 18.3 µg/mL (≈ 53.1 µM).
